System: Human dermal papilla cells (HDPCs)
Assay: Activation of hair dermal papilla cell proliferation (CCK8 assay, absorbance at 450 nm)
Format: cell-based
Settings: serum-free DMEM, peptide at 0.1 μM, 1 μM and 10 μM, 72 hours
Protocol: Human dermal papilla cells (HDPCs) were attached to a 96-well plate at 2,000 cells per well, and then cultured using DMEM medium (Sigma Aldrich) containing 10% FBS and 1% penicillin/streptomycin (P/S; Sigma Aldrich) for 24 hours, the medium was then exchanged with serum-free DMEM, and diluted samples were treated with a GPK, GPS, GPA, GQK, or PO peptide at a concentration of each of 0.1 μM, 1 μM, and 10 μM, for 72 hours, and then treated with a CCK8 reagent for 1 hour to measure the absorbance at 450 nm using a microplate reader (TECAN), and the results are shown in FIGS. 1 to 5 (FIG. 1: GPK, FIG. 2: GPS, FIG. 3: GPA, FIG. 4: GQK, and FIG. 5: PO). As a positive control (PC), a 5% fetal bovine serum (FBS) treated group was used.

| Substance | cell proliferation compared to the untreated control |
| --- | --- |
| Gly-Gln-Lys [GQK] | significantly increased |
| Gly-Pro-Ala [GPA] | significantly increased |
| Gly-Pro-Lys [GPK] | significantly increased |
| Gly-Pro-Ser [GPS] | significantly increased |
| Pro-Hyp [PO] | significantly increased |
